Measured values taken from patent US7605168B2 (Plexxikon, Inc., priority 2004, dated 2009).

Assays:
Format in all cases: biochemical
[1] = target: T1, PDE4D5: full-length human PDE4D5 isozyme (Homo sapiens, UniProt Q08499); experiment: PDE4 IC50 determination by Scintillation Proximity Assay (SPA), full-length PDE4D5; conditions: cell lysate, [3H]cAMP SPA
T1 construct: made in house; host or cells: baculovirus infected insect cells (pFastBacHT)
Protocol: (§1) The enzyme was not purified from the cell lysates, so enzyme concentrations were not determined. Enzyme was stored in 50% glycerol at −20°.
(§2) IC50s were determined by Scintillation Proximity Assay (SPA). The principle of the assay is based on the fact that cAMP, the PDE4 substrate, binds weakly to Yittrium Silicate SPA beads, whereas AMP, the product of PDE4 hydrolysis binds strongly. Thus, the extent of PDE4 hydrolysis of a sample of [^3H]cAMP can be measured because only the [^3H]AMP produced by PDE4 hydrolysis will bind to the SPA beads and produce a scintillation signal.
(§3) In addition to the compound dilutions, each assay plate contained control wells with 1 μl of DMSO (to define 0% enzyme inhibition) or 1 μl of 200 μM roflumilast (to define 100% enzyme inhibition). Using a Beckman FX robot, 10 μl of [^3H] cAMP (Amersham TRK559) at […] in assay buffer (50 mM Tris, pH 7.5; 8.3 mM MgCl; 1.7 mM EGTA; 0.01% BSA) was transferred to each assay well. Next, 10 μl of PDE4 enzyme in assay buffer was added and the plates were shaken for 30 s. at 1000 rpm to start the cAMP hydrolysis reaction. The concentrations of enzyme used were: PDE4B, 80 ng/ml; PDE4D, 4 ng/ml; PDE4B2, 2.5 μl of 50% glycerol stock/ml; PDE4D5 0.083 μl of 50% glycerol stock/ml. Assay plates were covered and incubated for 30 min. at 30° C. Reactions were stopped by robotic addition of 10 μl of 5 mg/ml SPA beads (Amersham RPNQ0013) in 18 mM ZnSO4. The assay plates were covered with clear plastic film, centrifuged for 1 min. at 1000 RPM to settle the SPA beads, and counted using a Wallac TriLux scintillation counter. IC50's were calculated from the raw assay data by non-linear regression curve fitting using the Assay Explorer software package from MDL.

[2] = target: T2, PDE4B: catalytic domain of human PDE4B from S152-S528 (Homo sapiens, UniProt Q07343); experiment: PDE4 IC50 determination by Scintillation Proximity Assay (SPA), PDE4B catalytic domain; conditions: [3H]cAMP SPA, 30 min at 30° C.
T2 construct: The catalytic domain of human PDE4B from S152-S528; His6 (N, cleaved yes); thrombin cleavage site (N, cleaved yes); made in house; host or cells: E. coli BL21 (DE3) RIL
T2 sequence (Q07343 324-700): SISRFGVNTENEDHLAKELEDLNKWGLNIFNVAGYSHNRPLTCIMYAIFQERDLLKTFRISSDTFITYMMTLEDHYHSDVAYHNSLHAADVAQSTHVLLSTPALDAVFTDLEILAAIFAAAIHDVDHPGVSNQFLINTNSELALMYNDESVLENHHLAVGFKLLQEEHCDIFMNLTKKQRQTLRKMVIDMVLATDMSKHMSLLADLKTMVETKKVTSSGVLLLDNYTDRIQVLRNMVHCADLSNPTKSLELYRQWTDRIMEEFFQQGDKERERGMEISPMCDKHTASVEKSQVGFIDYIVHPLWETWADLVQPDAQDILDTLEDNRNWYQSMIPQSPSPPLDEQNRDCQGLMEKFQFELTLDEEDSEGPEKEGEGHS
Protocol: as §2
Enzyme was stored in 50% glycerol at −20°.
as §3

[3] = target: T3, PDE4B2: full-length human PDE4B2 isozyme (Homo sapiens, UniProt Q07343); experiment: PDE4 IC50 determination by Scintillation Proximity Assay (SPA), full-length PDE4B2; conditions: cell lysate, [3H]cAMP SPA
T3 construct: made in house; host or cells: baculovirus infected insect cells (pFastBacHT)
T3 sequence (Q07343 with tags, fused parts or gaps isoform Q07343-2): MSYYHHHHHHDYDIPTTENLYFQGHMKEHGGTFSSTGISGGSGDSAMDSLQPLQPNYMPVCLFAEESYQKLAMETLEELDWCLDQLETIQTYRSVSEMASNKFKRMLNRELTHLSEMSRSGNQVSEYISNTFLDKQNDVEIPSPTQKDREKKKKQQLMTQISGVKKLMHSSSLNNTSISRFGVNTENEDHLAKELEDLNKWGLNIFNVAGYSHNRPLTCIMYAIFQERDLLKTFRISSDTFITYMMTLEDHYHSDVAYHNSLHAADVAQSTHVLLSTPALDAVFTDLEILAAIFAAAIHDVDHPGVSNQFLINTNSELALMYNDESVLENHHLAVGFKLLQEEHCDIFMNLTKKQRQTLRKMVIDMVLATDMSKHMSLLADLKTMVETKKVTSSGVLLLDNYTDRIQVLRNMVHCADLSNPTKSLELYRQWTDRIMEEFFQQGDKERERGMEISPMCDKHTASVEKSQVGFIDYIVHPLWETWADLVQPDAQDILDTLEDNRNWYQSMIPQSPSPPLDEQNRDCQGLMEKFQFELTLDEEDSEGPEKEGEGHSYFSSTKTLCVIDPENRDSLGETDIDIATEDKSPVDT
Protocol: as §1, §2, §3

T1 sequence (Q08499 with tags, fused parts or gaps isoform Q08499-6): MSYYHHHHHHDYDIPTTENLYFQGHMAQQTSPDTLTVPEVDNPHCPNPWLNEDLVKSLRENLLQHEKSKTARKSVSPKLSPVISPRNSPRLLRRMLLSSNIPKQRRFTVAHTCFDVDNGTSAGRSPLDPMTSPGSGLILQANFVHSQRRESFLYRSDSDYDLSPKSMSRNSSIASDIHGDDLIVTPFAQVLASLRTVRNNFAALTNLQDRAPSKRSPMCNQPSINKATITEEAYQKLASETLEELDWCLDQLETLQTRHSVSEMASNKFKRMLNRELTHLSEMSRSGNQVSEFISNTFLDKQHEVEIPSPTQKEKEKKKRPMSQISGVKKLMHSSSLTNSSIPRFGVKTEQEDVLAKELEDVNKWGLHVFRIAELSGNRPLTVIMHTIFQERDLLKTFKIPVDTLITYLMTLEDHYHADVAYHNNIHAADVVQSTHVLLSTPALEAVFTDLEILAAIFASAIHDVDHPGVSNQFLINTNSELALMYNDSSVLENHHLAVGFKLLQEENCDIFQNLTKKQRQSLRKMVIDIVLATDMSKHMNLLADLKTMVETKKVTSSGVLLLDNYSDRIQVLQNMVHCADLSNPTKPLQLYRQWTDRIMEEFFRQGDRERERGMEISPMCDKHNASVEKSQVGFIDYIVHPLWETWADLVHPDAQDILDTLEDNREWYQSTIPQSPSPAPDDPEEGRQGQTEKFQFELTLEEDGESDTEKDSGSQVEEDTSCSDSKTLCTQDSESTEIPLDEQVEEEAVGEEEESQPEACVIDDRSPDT

SMILES | IC50 [1] [µM] | IC50 [2] [µM] | IC50 [3] [µM]
COc1ccc(-c2cn(S(=O)(=O)c3ccccc3)c3ccccc23)cc1OC [Compound 19, 1-benzenesulfonyl-3-(3,4-dimethoxy-phenyl)-1H-indole] | < 10 | < 10 | < 10
COc1cc(-c2cn(S(=O)(=O)c3ccccc3)c3ncccc23)ccc1OCc1cc(-c2ccccc2)no1 [Compound 125, 1-Benzenesulfonyl-3-[3-methoxy-4-(3-phenyl-isoxazol-5-ylmethoxy)-phenyl]-1H-pyrrolo[2,3-b]pyridine] | < 10 |  | < 10
CCOc1ccc2ccccc2c1C(=O)n1cc(-c2cccc(C(=O)OC)c2)c2cccnc21 [Compound 120, 3-[1-(2-Ethoxy-naphthalene-1-carbonyl)-1H-pyrrolo[2,3-b]pyridin-3-yl]-benzoic acid methyl ester] | < 10 |  | < 10
COc1ccc(NC(=O)n2cc(-c3ccc(OC)c(OC)c3)c3cccnc32)cc1 [Compound 39, 3-(3,4-Dimethoxy-phenyl)-pyrrolo[2,3-b]pyridine-1-carboxylic acid (4-methoxy-phenyl)-amide] | > 10 | < 10 | < 10
COc1ccc(CC(=O)n2cc(-c3ccc(OC)c(OC)c3)c3cccnc32)cc1 [Compound 60, 1-[3-(3,4-Dimethoxy-phenyl)-pyrrolo[2,3-b]pyridin-1-yl]-2-(4-methoxy-phenyl)-ethanone-amide] | < 10 | < 10 | < 10
COc1ccc(-c2cn(S(=O)(=O)c3ccc(-c4ccccc4)cc3)c3ncccc23)cc1OC [Compound 10, 1-(Biphenyl-4-sulfonyl)-3-(3,4-dimethoxy-phenyl)-1H-pyrrolo[2,3-b]pyridine] | < 10 | < 10 | < 10
CSc1nccc(-c2cn(S(=O)(=O)c3cccc4cccnc34)c3ncccc23)n1 [Compound 46, 8-[3-(2-Methylsulfanyl-pyrimidin-4-yl)-pyrrolo[2,3-b]pyridine-1-sulfonyl]-quinoline] | < 10 | < 10 | < 10
COc1ccc(-c2cn(S(=O)(=O)c3cccc4cc(C)cnc34)c3ncccc23)cc1OC [Compound 13, 8-[3-(3,4-Dimethoxy-phenyl)-pyrrolo[2,3-b]pyridine-1-sulfonyl]-3-methyl-quinoline] | < 10 | < 10 | < 10
COC(=O)c1cccc(C#Cc2cn(S(=O)(=O)c3ccccc3)c3ncc(-c4ccc(OC)c(OC)c4)cc23)c1 [Compound 137, 3-[1-Benzenesulfonyl-5-(3,4-dimethoxy-phenyl)-1H-pyrrolo[2,3-b]pyridin-3-ylethynyl]-benzoic acid methyl ester] | < 10 |  | < 10
CCOC(=O)c1ccc(C#Cc2cn(S(=O)(=O)c3ccccc3)c3ncc(-c4ccc(OC)c(OC)c4)cc23)cc1 [Compound 135, 4-[1-Benzenesulfonyl-5-(3,4-dimethoxy-phenyl)-1H-pyrrolo[2,3-b]pyridin-3-ylethynyl]-benzoic acid ethyl ester] |  |  | < 10
CCOc1ccc(C(=O)n2cc(-c3ccc(OC)c(OC)c3)c3cccnc32)c(OCC)c1 [Compound 111, (2,4-Diethoxy-phenyl)-[3-(3,4-dimethoxy-phenyl)-pyrrolo[2,3-b]pyridin-1-yl]-methanone] | < 10 | < 10 | < 10
COc1ccc(-c2cn(S(=O)(=O)c3ccccc3)c3ncccc23)cc1O [Compound 141, 5-(1-Benzenesulfonyl-1H-pyrrolo[2,3-b]pyridin-3-yl)-2-methoxy-phenol] | < 10 |  | < 10
COc1ccc(-c2cn(C(=O)Nc3ccc(F)c([N+](=O)[O-])c3)c3ncccc23)cc1OC1CCCC1 [Compound 98, 3-(3-Cyclopentyloxy-4-methoxy-phenyl)-pyrrolo[2,3-b]pyridine-1-carboxylic acid (3-nitro-4-fluoro-phenyl)-amide] | < 10 |  | < 10
c1cnc2[nH]cc(-c3ccc4c(c3)OCO4)c2c1 [Compound 90, 3-Benzo[1,3]dioxol-5-yl-1H-pyrrolo[2,3-b]pyridine] | > 10 | > 10 | > 10
Cc1[nH]c2ncccc2c1-c1ccc2c(c1)OCO2 [Compound 142, 3-Benzo[1,3]dioxol-5-yl-2-methyl-1H-pyrrolo[2,3-b]pyridine] | > 10 | < 10 | > 10
COc1ccc(-c2cnc3c(c2)c(C#Cc2ccccc2)cn3S(=O)(=O)c2ccccc2)cc1OC [Compound 136, 1-Benzenesulfonyl-5-(3,4-dimethoxy-phenyl)-3-phenylethynyl-1H-pyrrolo[2,3-b]pyridine] | < 10 |  | < 10
COc1ccc(-c2cn(S(=O)(=O)c3ccc(Oc4ccccc4)cc3)c3ncccc23)cc1OC [Compound 15, 3-(3,4-Dimethoxy-phenyl)-1-(4-phenoxy-benzenesulfonyl)-1H-pyrrolo[2,3-b]pyridine] | < 10 | < 10 | < 10
COc1ccc(-c2cn(S(=O)(=O)c3ccccc3)c3ccccc23)cc1OC1CCCC1 [Compound 99, 1-Benzenesulfonyl-3-(3-cyclopentyloxy-4-methoxy-phenyl)-1H-indole] | < 10 | < 10 | < 10
COc1ccc(-c2c[nH]c3ncccc23)cc1OCc1ccccc1 [Compound 89, 3-(3-Benzyloxy-4-methoxy-phenyl)-1H-pyrrolo[2,3-b]pyridine] | < 10 |  | < 10
CCOC(=O)c1ccc(NC(=O)n2cc(-c3ccc(OC)c(OC)c3)c3cccnc32)cc1 [Compound 33, 4-[3-(3,4-Dimethoxy-phenyl)-pyrrolo[2,3-b]pyridine-1-carbonyl]-amino-benzoic acid ethyl ester] | > 10 | < 10 | < 10
CCOc1ccc2ccccc2c1C(=O)n1cc(-c2ccc(O)c(OC)c2)c2cccnc21 [Compound 123, (2-Ethoxy-naphthalen-1-yl)-[3-(4-hydroxy-3-methoxy-phenyl)-pyrrolo[2,3-b]pyridin-1-yl]-methanone] | < 10 |  | < 10
COc1ncc(-c2cn(S(=O)(=O)Cc3ccccc3)c3ncccc23)cn1 [Compound 45, 3-(2-Methoxy-pyrimidin-5-yl)-1-phenylmethanesulfonyl-1H-pyrrolo[2,3-b]pyridine] | < 10 | < 10 | < 10
COc1ccc(-c2cn(C(=O)c3ccc(Cl)nc3)c3ncccc23)cc1OC [Compound 107, (6-Chloro-pyridin-3-yl)-[3-(3,4-dimethoxy-phenyl)-pyrrolo[2,3-b]pyridin-1-yl]-methanone] | < 10 |  | < 10
COc1ccc(-c2cn(C(=O)Nc3cccc(F)c3)c3ncccc23)cc1OC [Compound 35, 3-(3,4-Dimethoxy-phenyl)-pyrrolo[2,3-b]pyridine-1-carboxylic acid(3-fluoro-phenyl)-amide] | > 10 | > 10 | > 10
COc1ccc(-c2cn(C(=O)[C@@H]3C[C@H]3c3ccccc3)c3ncccc23)cc1OC [Compound 108, [3-(3,4-Dimethoxy-phenyl)-pyrrolo[2,3-b]pyridin-1-yl]-((1R,2R)-2-phenyl-trans-cyclopropyl)-methanone] | < 10 |  | < 10
COc1ccc(-c2cn(C(=O)Nc3ccc(C(C)=O)cc3)c3ncccc23)cc1OC [Compound 40, 3-(3,4-Dimethoxy-phenyl)-pyrrolo[2,3-b]pyridine-1-carboxylic acid (4-acetyl-phenyl)-amide] | < 10 | < 10 | < 10
COc1ccc2c(c1)c(-c1ccc(OC)c(OC)c1)cn2S(=O)(=O)c1cccc2cc(C)cnc12 [Compound 94, 8-[3-(3,4-Dimethoxy-phenyl)-5-methoxy-indole-1-sulfonyl]-3-methyl-quinoline] | < 10 |  | < 10
COc1ccc(-c2cn(C(=O)c3ccccc3Oc3ccccc3)c3ncccc23)cc1OC [Compound 118, [3-(3,4-Dimethoxy-phenyl)-pyrrolo[2,3-b]pyridin-1-yl]-(2-phenoxy-phenyl)-methanone] | < 10 |  | < 10
